US9771430B2, “Method of treating a metabolic disorder induced by obesity in a subject in need thereof by administering MK2/3 inhibitors” (THE TRUSTEES OF COLUMBIA UNIVERSITY IN THE CITY OF NEW YORK, priority 2011, dated 2017)
“Also recorded” adds a separate entry of the source.

What was measured:
[1] = test system: IP3-mediated Ca2+ release; settings: cited from earlier work
[2] = test system: CRTC2; assay: CRTC2 dephosphorylation and nuclear translocation in primary hepatocytes; format: cell-based, mouse; settings: inhibitor pre-treatment 1 h, glucagon 100 nM
Experimental: HEK293T (ATCC) cells were cultured in DMEM containing 10% FBS (HyClone), […] penicillin-streptomycin. Mouse primary hepatocytes were isolated and cultured as previously described (18). Cellular fractionation studies were conducted as previously reported (18). For reporter studies, Ad-CRE-luc infected hepatocytes (1 pfu per cell) were exposed to glucagon (Gcg, 100 nM) for 2˜4 h. For cyclosporine A (CsA, 10 μM) or okadaic acid (OA, 100 nM) or cell permeable calcineurin autoinhibitory peptide (10 μM) or CN585 (100 μM) or Calyculin A (10 nM) or Xestospongin C (Xc, 2 μM) or H89 (30 μM) or BAPTA (50 μM) inhibition, hepatocytes were pre-treated with the inhibitors for one hour. Luciferase activities were normalized to β-galactosidase activity from adenoviral-encoded RSV β-gal. Calcineurin activity (test kit from Enzo Life Sciences) and cellular cAMP levels (test kit from Cayman Chemical Company) were measured according to manufacturer's instructions.
Immunoblot, immunoprecipitation, and immunostaining assays were performed as described (18). CRTC2, pCREB (Ser133), CREB, pAKT (Thr308), AKT, tubulin, HA, and FLAG antibodies were previously described (18). The antibodies anti-InsP3R1 (A302-158A) and InsP3R3 (A302-160A) were purchased from Bethyl Laboratories, anti-InsP3R2 (ab77838) from Abcam, anti-Calcineurin (610260) from BD Biosciences, anti-GRP78 (ADI-SPA-826-F) from Enzo Life Sciences, anti-phospho-PKA substrate (RRXS/T, 9624), anti-phospho-AKT substrate (RXXS/T, 9614) and CRTC2 (pS171, 2892) from Cell Signaling. CRTC2 (pS275) antibody was employed as described (19).

[3] = Fasting glucose in C57BL/6J mice treated with Xestospongin C; format: in vivo, mouse
From the text: FIGS. 49A-S. The role of IP3R in forskolin/glucagon-induced G6Pase/PEPCK in cultured hepatocytes and in fasting blood glucose in vivo. FIG. 49 A,B. FSK-Induced G6Pase and PEPCK is Calcium-Dependent. FIG. 49C-D. IP3R Activity is Required for Forskolin- and Glucagon-Induced G6Pase and PEPCK (FAO rat hepatocyte cell line). FIG. 49E-F. IP3R Activity is Required for Forskolin-Induced G6Pase and PEPCK (primary murine hepatocytes). FIG. 49G-H. IP3R1 Anti-Sense Oligonucleotide Suppresses Forskolin-Induced G6Pase and PEPCK (primary murine hepatocytes). FIG. 49I. Forskolin Activates IP3R Activity in FAO Hepatocytes (Inositol/ATP-Induced Calcium Release Assay). FIG. 49J. The PKA Inhibitor H89 Suppresses Forskolin-Induced IP3R Activation. FIG. 49K-L. IP3R Activity is Required for Forskolin-Induced PGC1a. FIG. 49M-N. Calcineurin Inhibitory Peptide Suppresses Forskolin-Induced G6Pase and PEPCK. FIG. 49O. IP3R Activity is Required for Forskolin-Induced Calcineurin Activation. FIG. 49P-Q. IP3R Activity is Required for Forskolin-Induced TORC2 Dephosphorylation and Nuclear Localization. FIG. 49R. TORC2 Transduction Partially Restores Forskolin-Induced G6Pase in IP3R-Inhibited Hepatocytes. FIG. 49S. Xestospongin C Treatment Reduces Fasting Glucose Levels in C57BL/6J Mice.

[4] = test system: CaMKII; assay: CaMKII enzyme activity assay in primary mouse hepatocytes; format: cell-based; settings: HCs, 100 nM glucagon, various times
Experimental: FIGS. 1A-J. Glucagon and fasting activates hepatic CaMKII. FIG. 1A. CaMKII enzyme activity was assayed in triplicate wells of primary mouse HCs stimulated with 100 nM glucagon (Gluc) or vehicle control (Veh) for the indicated times (*P<0.05 and **P<0.01 vs. Veh; mean±S.E.M.). FIGS. 1B-1J. Extracts of HCs or liver were probed for phospho-CaMKII, total CaMKII, and β-actin by immunoblot assay. FIG. 1B. HCs were incubated with […] glucagon for the indicated times; FIG. 1C. Glucagon was added to HCs that were pre-treated for 1 h with vehicle control (Veh) or 5 μM BAPTA-AM; FIG. 1D. […]
CaMKII activity was assayed using a CaMKII assay kit from Promega according to the manufacturer's instructions. […] Next, [γ-32P]ATP and CaMKII biotinylated peptide substrate were added to the lysate and after incubation for 10 minutes at 30° C., the [32P]-phosphorylated substrate was separated from the residual [32P]ATP using SAM biotin capture membrane and quantitated using a scintillation counter.
CaMKII activity was assayed using a CaMKII assay kit from Promega according to the manufacturer's instructions. […] After incubation for 10 min at 30° C., the [^32P]-phosphorylated substrate was separated from the residual [^32P]ATP using SAM biotin-capture membrane and then quantitated using a scintillation counter. […]

In the case of `C1CCC[C@H]2CCCN3CC[C@@H](CCCCCC[C@@H]4CCCN5CC[C@@H](CC1)O[C@@H]45)O[C@@H]23` [Xestospongin C], the “selectivity over the skeletal isoform of the ryanodine receptor type 1 (RyR-1)” value [1] is listed as “high selectivity”, the IC50 ([1]; read-out: IC50, blocker of IP3-mediated Ca2+ release) is listed as 0.358 µM and the “glucagon-induced dephosphorylation (and nuclear translocation) of CRTC2” value [2] is listed as “blocked”. For the same compound, the “Fasting Glucose Levels” value [3] was “Reduces”.
For “glucagon: hormone used to stimulate hepatocytes and mice”, the CaMKII activity [4] was “increased steadily as a function of time; also recorded: increases as a function of time”.
